The source of these data is US11998602B2, “Methods for promoting myelination and for treating demyelinating diseases” (The Scripps Research Institute, priority 2018, dated 2024).

The test system of assay [1] is Rat primary optic nerve OPCs. Put plainly: In vitro OPC differentiation assay, MBP expression by Western blot. The assay is classed as cell-based. The method, then: Rat primary optic nerve OPCs were isolated by panning (>99% A2B5^+) and cultured in poly-D-lysine (10 μg/ml)-coated TC dishes in OPC culture media (Neurobasal Media, Invitrogen) supplemented with B27-without vitamin A (Invitrogen), 1× non-essential amino acids, 1× Glutamax, 1× anti-anti, β-mercaptoethanol and PDGF-AA (50 ng/ml; Peprotech) at 37° C. with 5% CO2. The culture medium was replaced every 48 h and cells were collected before the confluency reached 60% to maintain a naive state. For differentiation, OPCs were plated at 1 million cells in one 10 cm petri-dish filled with differentiation media, which is identical to the culture media, but with PDGF-AA at 2 ng/ml. T3 and DMSO were used as the positive control and negative control, respectively. Five replicates of cells were collected at different times (0, 3, and 6 days) for metabolomics studies.
Western blot analysis. OPCs were plated in basal differentiation medium at 1.7×10^5 cells/well and treated for 6 days with benztropine (0.5 μM), miconazole (2 μM) with and without the tested endogenous metabolites, T3 (1 μM) or DMSO. After washing with PBS, cells were collected in ice cold RIPA buffer containing protease and phosphatase inhibitors. Following incubation on ice for >20 min and sonication, lysed cells were centrifuged (16,000 g, 15 min at 4° C.). Total protein was quantified using a BCA analysis and 25 μg of protein from each sample was denatured by boiling with Bolt LDS Sample Buffer (4×) and Sample Reducing Agent (10×). Proteins were electrophoresed using Bolt 4-12% Bis-Tris gels (Life Technologies) and transferred to a PVDF membrane (Bio-Rad). The membrane was blocked with Odyssey PBS Blocking Buffer (LI-COR) and incubated overnight at 4° C. with anti-MBP (mouse, 1:2000) and anti-actin (mouse, 1:5000). Blots were incubated with […] secondary donkey anti-mouse antibody (LI-COR, 1:7500) and imaged using Odyssey CLx and Image Studio (LI-COR).
Background: In western blotting, separated proteins are transferred to a membrane and probed.

For assay [2], the system named is Rat primary optic nerve OPCs. Put plainly: High content imaging assay of OPC differentiation (MBP, A2B5, DAPI cell counts). In kind it is cell-based. The method, then: Rat primary optic nerve OPCs were isolated by panning (>99% A2B5^+) and cultured in poly-D-lysine (10 μg/ml)-coated TC dishes in OPC culture media (Neurobasal Media, Invitrogen) supplemented with B27-without vitamin A (Invitrogen), 1× non-essential amino acids, 1× Glutamax, 1× anti-anti, β-mercaptoethanol and PDGF-AA (50 ng/ml; Peprotech) at 37° C. with 5% CO2. The culture medium was replaced every 48 h and cells were collected before the confluency reached 60% to maintain a naive state. For differentiation, OPCs were plated at 1 million cells in one 10 cm petri-dish filled with differentiation media, which is identical to the culture media, but with PDGF-AA at 2 ng/ml. T3 and DMSO were used as the positive control and negative control, respectively. Five replicates of cells were collected at different times (0, 3, and 6 days) for metabolomics studies. High content imaging. For dose-response co-treatment experiments, black, clear-bottom 384-well plates (Greiner) were coated with poly-D-lysine (10 μg ml^−1 in PBS). miconazole and benztropine were added at 8 doses in differentiation media; 3-fold dilutions down from 10 μM. taurine was then added at 8 concentrations; 3-fold dilutions down from 20 mM. This 384-well format was also utilized for experiments combining benztropine (0.5 μM), miconazole (2 μM) or T3 (1 μM) with propargylglycine (0.1, 3, 10, 30 μM), reduced glutathione (1, 10, 30, 100 μM) or ascorbic acid ([…]). OPCs were then seeded at a density of 1,000 cells per well, and the plates were incubated at 37° C. with 5% CO2 for 6 days. For time course experiments, cells were seeded at a density of 5,000 cells per well in poly-D-lysine-coated 96-well plates. Cells were treated with DMSO (0.1%), benztropine (0.5 μM), miconazole (2 μM) or T3 (1 μM) on day 0, and taurine (20 mM) was added in combination at 0, 1 or 3 days post-drug treatment. The plates were incubated at 37° C. with 5% CO2 for 6 days. On day 6, cells were then fixed for 20 min with 4% formaldehyde solution and stained with mouse anti-Myelin Basic Protein (MBP) antibody (MAB382, Millipore) or anti-A2B5 antibody (MAB312, Millipore) in 3% BSA, 0.3% Triton X-100 with overnight incubation at 4° C. The cells were washed and incubated with secondary antibody (goat anti-mouse Alexa Fluor488) and DAPI (Invitrogen) for 1 h at room temperature. The cells were washed and plates were sealed and imaged using an Opera confocal imaging reader (Perkin Elmer) or a Cellomics Cell Insight imaging reader (Thermo). An air ×10 lens was used to capture 9 images per well at both wavelengths (488 and 365 nm), with each image representing a different unique locations field in a single well. For image analysis, DAPI-stained nuclei and MBP-positive or A2B5-positive cell bodies were detected using an algorithm that selects for positive cell bodies and nuclei within a range of fluorescent emission values and sizes as determined by fitting parameters to positive (T3, 1 μM) and negative controls (DMSO, 0.1%). The numbers of DAPI-positive objects were enumerated in experiments where cell counts were required. Numerical results from the analyzed images were later exported for analysis using Excel (Microsoft) and/or Genedata software.

The structures appear in SMILES notation.

For the molecule `NCCS(=O)(=O)O` [taurine, 2-aminoethanesulfonic acid], the “MBP induction (Western blot), increase compared to benztropine-induced differentiation in the absence of taurine” value in assay [1] (2 mM taurine added to benztropine (0.5 μM), 6 days) was determined as 2.0 fold. The “MBP induction (Western blot), increase compared to miconazole-induced differentiation in the absence of taurine” value in assay [1] (2 mM taurine added to miconazole (2 μM), 6 days) was 2.3 fold. The “Efficacy of induced OPC differentiation” value in assay [1] (added to benztropine- or miconazole-containing media) is on record as “dramatically increase”. Besides, the “Enhancement of overall cell number compared to drug treatment alone” value in assay [2] (>2 mM taurine with miconazole or benztropine, 6 days) is listed as “over 20%”. Moreover, the “Days of taurine addition with the most significant impact on MBP expression” value in assay [2] (dosing initiated at days 0 to 5, evaluated at day 6) was “between days 1 and 3”. The “Impact on MBP expression of taurine addition on day 0 compared with days 1 to 3” value in assay [2] (evaluated at day 6) was “significantly less efficacious”. For the same molecule, the “Impact on number of residual immature A2B5+ OPCs” value in assay [2] (taurine added on day 0, 1 or 3 to basal or drug-induced conditions, read at day 3 or day 6) is given as “minimal, albeit statistically significant, impact”.
